# In patent EP4603105A1, “PHARMACEUTICAL COMPOSITION CONTAINING CYCLIC COMPOUND HAVING SELECTIVE KRAS INHIBITORY EFFECT AGAINST HRAS AND NRAS” (CHUGAI SEIYAKU KABUSHIKI KAISHA, priority 2022, dated 2024):
# Like-named read-outs stand apart in the source and are kept apart here.
# How the values were obtained:
# [1] = target: GDP-bound KRAS wild-type protein (Homo sapiens, UniProt P01116); assay: Binding to KRAS by surface plasmon resonance (SPR), dissociation constant KD
# Procedure, shortened: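 Captured GDP-RAS (~100–300 RU) was exposed to increasing compound concentrations, 75 s per step, in running buffer with 10 µM GDP, 10 mM MgCl2 and 4% DMSO at pH 7.4.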
# [2] = target: GDP-bound NRAS wild-type protein (Homo sapiens, UniProt P01111); assay: Binding to NRAS by surface plasmon resonance (SPR), KD and KD ratio to KRAS
# Procedure, shortened: (§1)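 Each cycle, GDP-bound biotin-Avi RAS was captured (~100–300 RU), compound concentrations were injected low to high for 75 s each at 100 µL/min, then the chip was regenerated. Buffer: HBS pH 7.4, 10 mM MgCl2, 10 µM GDP, 1 mM DTT, 4% DMSO; 30°C. KD from a 1:1 binding model.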
# [3] = target: HRAS wild-type protein (Homo sapiens, UniProt P01112); assay: Binding to HRAS by surface plasmon resonance (SPR), KD and KD ratio to KRAS
# Procedure, shortened: as §1
# [4] = test system: human lung cancer strain NCI-H441; assay: NCI-H441 cell proliferation inhibitory activity (CellTiter-Glo, 4 days); format: cell-based; settings: read-out: NCl-H441 IC50
# Procedure, shortened: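 Signal came from […] measured per well once the reagent was added. Beforehand, cells were cultured at 37°C and 5% carbon dioxide on a compound series serially diluted in dimethyl sulfoxide.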
# [5] = ratio of KD for GDP-bound NRAS wild-type protein to KD for KRAS
# [6] = ratio of KD for HRAS wild-type protein to KD for KRAS
# [7] = Single Cycle Kinetics, 1:1 binding model
# [8] = ratio of KD with respect to GDP-bound NRAS wild-type protein to KD with respect to KRAS
# [9] = ratio of KD with respect to HRAS wild-type protein to KD with respect to KRAS
# [10] = 50% proliferation inhibitory concentration, four days
# Sequence of GDP-bound NRAS wild-type protein (P01111 whole entry): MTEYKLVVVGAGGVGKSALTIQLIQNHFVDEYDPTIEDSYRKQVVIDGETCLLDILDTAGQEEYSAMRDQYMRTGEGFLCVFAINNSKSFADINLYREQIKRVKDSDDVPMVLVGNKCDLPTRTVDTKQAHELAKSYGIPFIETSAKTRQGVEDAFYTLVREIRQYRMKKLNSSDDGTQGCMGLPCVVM
# Sequence of GDP-bound KRAS wild-type protein (P01116 1-188 isoform P01116-2): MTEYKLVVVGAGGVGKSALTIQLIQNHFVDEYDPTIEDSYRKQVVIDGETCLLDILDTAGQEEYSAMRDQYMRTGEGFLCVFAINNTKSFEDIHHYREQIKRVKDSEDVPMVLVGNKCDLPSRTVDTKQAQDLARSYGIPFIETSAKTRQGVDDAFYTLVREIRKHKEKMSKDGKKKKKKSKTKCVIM
# Sequence of HRAS wild-type protein (P01112 whole entry): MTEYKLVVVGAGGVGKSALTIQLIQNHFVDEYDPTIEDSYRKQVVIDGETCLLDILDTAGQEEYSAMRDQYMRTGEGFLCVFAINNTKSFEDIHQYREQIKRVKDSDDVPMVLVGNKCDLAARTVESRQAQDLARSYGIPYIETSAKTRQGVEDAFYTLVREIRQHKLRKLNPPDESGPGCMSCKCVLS
SMILES,Kd ([1]; 1:1 binding model) [nM],"NRAS /KRAS [2, 5]","HRAS /KRAS [3, 6]","IC50 ([4]; NCI-H441 cells, 4 days) [nM]",Kd ([1]; Single Cycle Kinetics) [nM],"Kd [1, 7] [nM]","NRAS /KRAS [2, 8]","HRAS /KRAS [3, 9]","IC50 [4, 10] [nM]"
CCC[C@H]1C(=O)N[C@@H]([C@@H](C)CC)C(=O)N(C)CC(=O)N(C)[C@H]2C/C=C\CCN(C2=O)[C@@H](CC2CCCCC2)C(=O)N(C)CC(=O)N[C@@H](CCc2ccc(C(F)(F)F)c(OC)c2)C(=O)N2C[C@@H](C)C[C@H]2C(=O)N(C)C2(CCC2)C(=O)N(C)[C@@H](C2CCCC2)C(=O)N(C)[C@H](C(=O)N(C)C)CC(=O)N1C [PP2370],0.54,B (a compound having 3 or more and less than 10 is denoted as B),B (a compound having 3 or more and less than 10 is denoted as B),25.7,,,,,
CCO[C@@H]1C[C@H]2C(=O)NC3(CC(C)(C)C3)C(=O)N(C)[C@@H](C3CCCC3)C(=O)N(C)[C@H](C(=O)N(C)CC)CC(=O)N(C)[C@@H]([C@H](C)OC)C(=O)N[C@@H]([C@@H](C)CC)C(=O)N(C3CC3)CC(=O)N(C)[C@H]3C/C=C\CCN(C3=O)[C@@H](Cc3ccc(C(F)(F)F)cc3)C(=O)N(C)CC(=O)N[C@@H](CCc3ccc(C(F)(F)F)c(Cl)c3)C(=O)N2C1 [PP3221],,A (a compound having 10 or more and less than 20 is denoted as A),A (a compound having 10 or more and less than 20 is denoted as A),51.5,0.82,,,,
CCOC[C@H]1C(=O)N[C@@H]([C@@H](C)CC)C(=O)N(C)CC(=O)N(C)[C@H]2C/C=C\CCN(C2=O)[C@@H](Cc2ccc(C)cc2)C(=O)N(C)CC(=O)N[C@@H](CCc2ccc(C(F)(F)F)c(OC)c2)C(=O)N2C[C@H](OCC)C[C@H]2C(=O)NC2(CC(C)(C)C2)C(=O)N(C)[C@@H](C2CCCC2)C(=O)N(C)[C@H](C(=O)N(C)CC)CC(=O)N1C [PP2445],0.14,A (a compound having 10 or more and less than 20 is denoted as A),B (a compound having 3 or more and less than 10 is denoted as B),11.7,,,,,
CCO[C@@H]1C[C@H]2C(=O)NC3(CCC3)C(=O)N(C)[C@@H](C3CCCC3)C(=O)N(C)[C@H](C(=O)N3CCCC3)CC(=O)N(C)[C@@H](CC(C)C)C(=O)N[C@@H]([C@@H](C)CC)C(=O)N(C)CC(=O)N(C)[C@H]3C/C=C\CCN(C3=O)[C@@H](Cc3ccc(C(F)(F)F)cc3)C(=O)N(C)CC(=O)N[C@@H](CCc3cc(F)c(C(F)(F)F)c(F)c3)C(=O)N2C1 [PP1295],,,,,,0.12,AA (a compound having 20 or more is denoted as AA),A (a compound having 10 or more and less than 20 is denoted as A),6.2
CCCOC[C@H]1C(=O)N[C@@H](C2CCCC2)C(=O)N(CCC)CC(=O)N(C)[C@H]2C/C=C\CCN(C2=O)[C@@H](Cc2ccc(C(F)F)cc2)C(=O)N(C)CC(=O)N[C@@H](CCc2ccc(C(F)(F)F)c(Cl)c2)C(=O)N2C[C@H](OC(C)C)C[C@H]2C(=O)N(C)C2(CCC2)C(=O)N(C)[C@@H](C(CC)CC)C(=O)N(C)[C@H](C(=O)N(C)C)CC(=O)N1C [PP3489],,AA (a compound having 20 or more is denoted as AA),A (a compound having 10 or more and less than 20 is denoted as A),45,1.3,,,,
CCO[C@@H]1C[C@H]2C(=O)NC3(CCCC3)C(=O)N(C)[C@@H](C3CCCC3)C(=O)N(C)[C@H](C(=O)N(C)C)CC(=O)N(C)[C@@H](CC(C)C)C(=O)N[C@@H]([C@@H](C)CC)C(=O)N(C)CC(=O)N(C)[C@H]3C/C=C\CCN(C3=O)[C@@H](CC3CCC(F)(F)CC3)C(=O)N(C)CC(=O)N[C@@H](CCc3cc(F)c(C(F)(F)F)c(F)c3)C(=O)N2C1 [PP1459],,,,,,0.2,A (a compound having 10 or more and less than 20 is denoted as A),A (a compound having 10 or more and less than 20 is denoted as A),38.6
C#CC[C@H]1C(=O)N[C@@H]([C@@H](C)CC)C(=O)N2CCCCC[C@H]2C(=O)N(C)[C@H]2C/C=C\CCN(C2=O)[C@@H](Cc2ccc(C)cc2)C(=O)N(C)CC(=O)N[C@@H](CCc2ccc(C(F)(F)F)c(OC)c2)C(=O)N2C[C@H](OCC)C[C@H]2C(=O)N(C)C2(CCC2)C(=O)N(C)[C@@H](C2CCCC2)C(=O)N(C)[C@H](C(=O)N(C)C)CC(=O)N1C [PP3267],,A (a compound having 10 or more and less than 20 is denoted as A),B (a compound having 3 or more and less than 10 is denoted as B),196,5,,,,
CCC[C@H]1C(=O)N[C@@H](CC(C)C)C(=O)N(CC)CC(=O)N(C)[C@H]2C/C=C\CCN(C2=O)[C@@H](Cc2ccc(C)cc2)C(=O)N(C)CC(=O)N[C@@H](CCc2cc(F)c(C(F)(F)F)c(F)c2)C(=O)N2C[C@H](OCC)C[C@H]2C(=O)NC2(CCC2)C(=O)N(C)[C@@H](C2CCCC2)C(=O)N(C)[C@H](C(=O)N(C)C)CC(=O)N1C [PP2539],4.3,A (a compound having 10 or more and less than 20 is denoted as A),B (a compound having 3 or more and less than 10 is denoted as B),330,,,,,
CCO[C@@H]1C[C@H]2C(=O)NC3(CC(C)(C)C3)C(=O)N(C)[C@@H](C3CCCC3)C(=O)N(C)[C@H](C(=O)N(C)C)CC(=O)N(C)[C@@H](COC)C(=O)N[C@@H]([C@@H](C)CC)C(=O)N(C)CC(=O)N(C)[C@H]3C/C=C\CCN(C3=O)[C@@H](Cc3ccc(C)cc3)C(=O)N(C)CC(=O)N[C@@H](CCc3ccc(C(F)(F)F)c(Cl)c3)C(=O)N2C1 [PP2389],0.079,A (a compound having 10 or more and less than 20 is denoted as A),B (a compound having 3 or more and less than 10 is denoted as B),21.3,,,,,
CCO[C@@H]1C[C@H]2C(=O)NC3(CC(C)(C)C3)C(=O)N(C)[C@@H](C3CCCC3)C(=O)N(C)[C@H](C(=O)N(CC)CC)CC(=O)N(C)[C@@H](COC)C(=O)N[C@@H]([C@@H](C)CC)C(=O)N(C)CC(=O)N(C)[C@H]3C/C=C\CCN(C3=O)[C@@H](Cc3ccc(C)cc3)C(=O)N(C)CC(=O)N[C@@H](CCc3cc(F)c(C(F)(F)F)c(F)c3)C(=O)N2C1 [PP2403],0.22,A (a compound having 10 or more and less than 20 is denoted as A),A (a compound having 10 or more and less than 20 is denoted as A),7.2,,,,,
CCO[C@@H]1C[C@H]2C(=O)NC3(CCC3)C(=O)N(C)[C@@H](C3CCCC3)C(=O)N(C)[C@H](C(=O)N(C)C)CC(=O)N(C)[C@@H](CC3CC3)C(=O)N[C@@H]([C@@H](C)CC)C(=O)N(C)CC(=O)N(C)[C@H]3C/C=C\CCN(C3=O)[C@@H](Cc3ccc(F)cc3C)C(=O)N(C)CC(=O)N[C@@H](CCc3ccc(Cl)c(Cl)c3)C(=O)N2C1 [PP1476],,,,,,1,A (a compound having 10 or more and less than 20 is denoted as A),B (a compound having 3 or more and less than 10 is denoted as B),216
CCO[C@@H]1C[C@H]2C(=O)NC3(CC(C)(C)C3)C(=O)N(C)[C@@H](C3CCCC3)C(=O)N(C)[C@H](C(=O)N(C)C)CC(=O)N[C@@H](CC(C)C)C(=O)N[C@@H]([C@@H](C)CC)C(=O)N(C)CC(=O)N(C)[C@H]3C/C=C\CCN(C3=O)[C@@H](Cc3ccc(C(F)(F)F)cc3)C(=O)N(C)CC(=O)N[C@@H](CCc3ccc(C(F)(F)F)c(OC)c3)C(=O)N2C1 [PP3445],,A (a compound having 10 or more and less than 20 is denoted as A),A (a compound having 10 or more and less than 20 is denoted as A),20.2,0.13,,,,
CCO[C@@H]1C[C@H]2C(=O)NC3(CCC3)C(=O)N(C)[C@@H](C3CCCC3)C(=O)N(C)[C@H](C(=O)N(C)C)CC(=O)N(C)[C@@H](CC3CC3)C(=O)N[C@@H]([C@@H](C)CC)C(=O)N(C)CC(=O)N(C)[C@H]3C/C=C\CCN(C3=O)[C@@H](CC3CCC(F)(F)CC3)C(=O)N(C)CC(=O)N[C@@H](CCc3cc(F)c(C(F)(F)F)c(F)c3)C(=O)N2C1 [PP1447],,,,,,0.12,A (a compound having 10 or more and less than 20 is denoted as A),A (a compound having 10 or more and less than 20 is denoted as A),28.9
CCC[C@H]1C(=O)N[C@@H]([C@@H](C)CC)C(=O)N(C)CC(=O)N(C)[C@H]2C/C=C\CCN(C2=O)[C@@H](Cc2ccc(C(F)(F)F)cc2)C(=O)N(C)CC(=O)N[C@@H](CCc2ccc(C(F)(F)F)c(Cl)c2)C(=O)N2CC3(CC3)C[C@H]2C(=O)N(C)C2(CCC2)C(=O)N(C)[C@@H](C(CC)CC)C(=O)N(C)[C@H](C(=O)N(C)C)CC(=O)N1C [PP3297],,A (a compound having 10 or more and less than 20 is denoted as A),B (a compound having 3 or more and less than 10 is denoted as B),10.2,0.48,,,,
